Experimental data from ChEMBL document CHEMBL1201862, “PubChem BioAssay data set” (2004).
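Compound exposure: 48 hours, 5 concentrations, 96-well plates. Here, GI50 denotes the concentration required for 50% inhibition of growth.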 The source made the active and inactive calls. No stated cut-off is given here; in the data, active = GI50 up to about 1.1 µM and inactive = higher.

Columns and labels:
Assay in all cases: NCI-60 cell line screen, 48 h
[1] = tested on: A549
[2] = tested on: ACHN
[3] = tested on: CAKI-1
[4] = tested on: COLO 205
[5] = tested on: HCT-15
[6] = tested on: HOP-92
[7] = tested on: LOX IMVI
[8] = tested on: MDA-MB-231
[9] = tested on: NCI-H226
[10] = tested on: OVCAR-3
[11] = tested on: OVCAR-5
[12] = tested on: PC-3
[13] = tested on: SF-295
[14] = tested on: SK-OV-3
[15] = tested on: TK-10
[16] = tested on: UACC-257
[17] = tested on: A498
[18] = tested on: RXF 393
[19] = tested on: SF-539

CN1C[C@H]2[C@@H](C1=O)[C@H](c1ccccc1)ON2C
GI50 [1]: > 100 µM (inactive)
GI50 [2]: > 100 µM (inactive)
GI50 [3]: > 100 µM (inactive)
GI50 [4]: > 100 µM (inactive)
GI50 [5]: > 100 µM
GI50 [6]: 59.2 µM (inactive)
GI50 [7]: > 100 µM (inactive)
GI50 [8]: > 100 µM (inactive)
GI50 [9]: > 100 µM (inactive)
GI50 [10]: > 100 µM (inactive)
GI50 [11]: > 100 µM (inactive)
GI50 [12]: > 100 µM (inactive)
GI50 [13]: > 100 µM (inactive)
GI50 [14]: > 100 µM (inactive)
GI50 [15]: > 100 µM (inactive)
GI50 [16]: > 100 µM (inactive)

CN(CCO)CCC1COc2ccccc2O1 (stereo not given)
GI50 [17]: > 10 µM (inactive)
GI50 [1]: > 10 µM (inactive)
GI50 [2]: > 10 µM (inactive)
GI50 [3]: > 10 µM (inactive)
GI50 [4]: > 10 µM (inactive)
GI50 [5]: > 10 µM
GI50 [7]: > 10 µM (inactive)
GI50 [8]: > 10 µM (inactive)
GI50 [9]: > 10 µM (inactive)
GI50 [10]: > 10 µM (inactive)
GI50 [11]: > 10 µM (inactive)
GI50 [12]: > 10 µM (inactive)
GI50 [18]: 7.98 µM (inactive)
GI50 [13]: > 10 µM (inactive)
GI50 [19]: > 10 µM (inactive)
GI50 [14]: > 10 µM (inactive)
GI50 [15]: > 10 µM (inactive)

Cc1nnc2sc(N/N=C/c3ccccc3)nn12
GI50 [17]: > 100 µM (inactive)
GI50 [1]: > 100 µM (inactive)
GI50 [2]: > 100 µM (inactive)
GI50 [3]: > 100 µM (inactive)
GI50 [4]: > 100 µM (inactive)
GI50 [5]: > 100 µM
GI50 [7]: > 100 µM (inactive)
GI50 [8]: > 100 µM (inactive)
GI50 [9]: > 100 µM (inactive)
GI50 [10]: > 100 µM (inactive)
GI50 [11]: > 100 µM (inactive)
GI50 [12]: > 100 µM (inactive)
GI50 [18]: > 100 µM (inactive)
GI50 [13]: > 100 µM (inactive)
GI50 [19]: > 100 µM (inactive)
GI50 [14]: 27.4 µM (inactive)
GI50 [15]: > 100 µM (inactive)
GI50 [16]: > 100 µM (inactive)

N=C(N)N/N=C\c1c(-c2cccc([N+](=O)[O-])c2)nc2sccn12
GI50 [17]: 25 µM (inactive)
GI50 [1]: 18.1 µM (inactive)
GI50 [2]: 2.86 µM (inactive)
GI50 [3]: 17.4 µM (inactive)
GI50 [4]: 2.39 µM (inactive)
GI50 [5]: 9.68 µM
GI50 [6]: 5.93 µM (inactive)
GI50 [7]: 3.89 µM (inactive)
GI50 [8]: 2.15 µM (inactive)
GI50 [9]: 2.68 µM (inactive)
GI50 [10]: 2.79 µM (inactive)
GI50 [11]: 3.91 µM (inactive)
GI50 [12]: 6.7 µM (inactive)
GI50 [18]: 2.64 µM (inactive)
GI50 [13]: 2.64 µM (inactive)
GI50 [19]: 17.9 µM (inactive)
GI50 [15]: 2.47 µM (inactive)
GI50 [16]: 23.7 µM (inactive)

N#C/C(=C\c1ccc(Br)cc1)c1nc(-c2cc3ccccc3oc2=O)cs1
GI50 [1]: 35.1 µM (inactive)
GI50 [2]: 10.8 µM (inactive)
GI50 [3]: 48.4 µM (inactive)
GI50 [4]: > 50 µM (inactive)
GI50 [5]: 32.1 µM
GI50 [6]: 11 µM (inactive)
GI50 [7]: 24.8 µM (inactive)
GI50 [8]: 10.1 µM (inactive)
GI50 [9]: 11.9 µM (inactive)
GI50 [11]: 31 µM (inactive)
GI50 [12]: 21 µM (inactive)
GI50 [18]: 19.2 µM (inactive)
GI50 [13]: 18.5 µM (inactive)
GI50 [19]: 14 µM (inactive)
GI50 [14]: 18.9 µM (inactive)
GI50 [15]: 10.2 µM (inactive)
GI50 [16]: 11.7 µM (inactive)

CC1=C2C(=C[C@H]3[C@]4(C)CCCC(C)(C)[C@H]4CC[C@]34O[C@H]24)OC1=O
GI50 [17]: > 100 µM (inactive)
GI50 [1]: > 100 µM (inactive)
GI50 [2]: > 100 µM (inactive)
GI50 [4]: > 100 µM (inactive)
GI50 [5]: > 100 µM
GI50 [6]: > 100 µM (inactive)
GI50 [8]: > 100 µM (inactive)
GI50 [9]: > 100 µM (inactive)
GI50 [11]: > 100 µM (inactive)
GI50 [12]: > 100 µM (inactive)
GI50 [18]: > 100 µM (inactive)
GI50 [13]: > 100 µM (inactive)
GI50 [14]: > 100 µM (inactive)
GI50 [15]: > 100 µM (inactive)
GI50 [16]: > 100 µM (inactive)

O=C1C[C@@H](C(=O)OCc2ccccc2)NC(=O)C[C@@H](C(=O)OCc2ccccc2)NC(=O)C[C@@H](C(=O)OCc2ccccc2)N1
GI50 [17]: 27.5 µM (inactive)
GI50 [1]: > 100 µM (inactive)
GI50 [2]: 23 µM (inactive)
GI50 [3]: > 100 µM (inactive)
GI50 [4]: > 100 µM (inactive)
GI50 [5]: > 100 µM
GI50 [6]: 20.7 µM (inactive)
GI50 [7]: > 100 µM (inactive)
GI50 [8]: 14 µM (inactive)
GI50 [9]: > 100 µM (inactive)
GI50 [10]: > 100 µM (inactive)
GI50 [11]: > 100 µM (inactive)
GI50 [12]: > 100 µM (inactive)
GI50 [18]: 13.3 µM (inactive)
GI50 [13]: 20 µM (inactive)
GI50 [19]: 18.5 µM (inactive)
GI50 [14]: 20.8 µM (inactive)
GI50 [15]: 19.6 µM (inactive)
GI50 [16]: > 100 µM (inactive)

CC1(C)CNC(=O)C2(/C=N/C(C)(C)CNC(=O)C3(/C=N/1)CCCO3)CCCO2 (stereo not given)
GI50 [17]: > 10 µM (inactive)
GI50 [1]: > 10 µM (inactive)
GI50 [2]: > 10 µM (inactive)
GI50 [3]: > 10 µM (inactive)
GI50 [4]: > 10 µM (inactive)
GI50 [5]: > 10 µM
GI50 [6]: > 10 µM (inactive)
GI50 [8]: > 10 µM (inactive)
GI50 [10]: > 10 µM (inactive)
GI50 [12]: > 10 µM (inactive)
GI50 [18]: > 10 µM (inactive)
GI50 [13]: > 10 µM (inactive)
GI50 [19]: > 10 µM (inactive)
GI50 [14]: > 10 µM (inactive)
GI50 [15]: > 10 µM (inactive)
GI50 [16]: > 10 µM (inactive)

CC(C)(C)[Si](C)(C)OCC1CCC(n2cnc3c(N)ncnc32)O1 (stereo not given)
GI50 [17]: > 100 µM (inactive)
GI50 [3]: > 100 µM (inactive)
GI50 [4]: > 100 µM (inactive)
GI50 [5]: 72.1 µM
GI50 [6]: > 100 µM (inactive)
GI50 [7]: > 100 µM (inactive)
GI50 [8]: 54.1 µM (inactive)
GI50 [9]: > 100 µM (inactive)
GI50 [10]: 48.9 µM (inactive)
GI50 [11]: > 100 µM (inactive)
GI50 [12]: 28.2 µM (inactive)
GI50 [18]: 84.1 µM (inactive)
GI50 [13]: 81.8 µM (inactive)
GI50 [14]: 65 µM (inactive)
GI50 [15]: > 100 µM (inactive)
GI50 [16]: 33.7 µM (inactive)

N#CSCC1COc2ccccc2O1 (stereo not given)
GI50 [17]: > 10 µM (inactive)
GI50 [1]: > 10 µM (inactive)
GI50 [2]: > 10 µM (inactive)
GI50 [3]: > 10 µM (inactive)
GI50 [4]: > 10 µM (inactive)
GI50 [5]: 9.89 µM
GI50 [7]: 3.78 µM (inactive)
GI50 [8]: > 10 µM (inactive)
GI50 [9]: 6.11 µM (inactive)
GI50 [10]: > 10 µM (inactive)
GI50 [11]: > 10 µM (inactive)
GI50 [12]: > 10 µM (inactive)
GI50 [18]: > 10 µM (inactive)
GI50 [13]: > 10 µM (inactive)
GI50 [19]: > 10 µM (inactive)
GI50 [14]: > 10 µM (inactive)
GI50 [15]: > 10 µM (inactive)

CC(NNC(=O)c1cc[n+]([BH2-]C#N)cc1)c1ccc(F)cc1 (stereo not given)
GI50 [17]: > 100 µM (inactive)
GI50 [1]: > 100 µM (inactive)
GI50 [2]: > 100 µM (inactive)
GI50 [3]: > 100 µM (inactive)
GI50 [4]: > 100 µM (inactive)
GI50 [5]: > 100 µM
GI50 [6]: > 100 µM (inactive)
GI50 [7]: > 100 µM (inactive)
GI50 [8]: > 100 µM (inactive)
GI50 [9]: > 100 µM (inactive)
GI50 [10]: > 100 µM (inactive)
GI50 [11]: > 100 µM (inactive)
GI50 [12]: > 100 µM (inactive)
GI50 [18]: > 100 µM (inactive)
GI50 [13]: > 100 µM (inactive)
GI50 [19]: > 100 µM (inactive)
GI50 [14]: > 100 µM (inactive)
GI50 [15]: > 100 µM (inactive)
GI50 [16]: > 100 µM (inactive)

COc1cc(C2c3[nH]c4ccccc4c3[C@@H](Nc3ccc(F)cc3)[C@H]3COC(=O)N23)cc(OC)c1O (stereo not given in full)
GI50 [17]: 2.13 µM (inactive)
GI50 [1]: 0.465 µM (active)
GI50 [2]: 0.248 µM (active)
GI50 [3]: 0.828 µM (active)
GI50 [5]: 1.66 µM
GI50 [6]: 2.26 µM (inactive)
GI50 [7]: 1.21 µM (inactive)
GI50 [8]: 3.44 µM (inactive)
GI50 [9]: 0.815 µM (active)
GI50 [10]: 1.92 µM (inactive)
GI50 [11]: 1.79 µM (inactive)
GI50 [12]: 1.91 µM (inactive)
GI50 [13]: 0.794 µM (active)
GI50 [19]: 1.26 µM (inactive)
GI50 [14]: 1.1 µM (active)
GI50 [15]: 1.97 µM (inactive)
GI50 [16]: 3.77 µM (inactive)
